Assay results reported in patent publication US8841483B2, “Compositions useful as inhibitors of voltage-gated sodium channels” (Vertex Pharmaceuticals Incorporated, priority 2006, dated 2014).

Each compound was assayed against NaV1.8 (Homo sapiens, UniProt Q9Y5Y9) (assay: Activity against NaV 1.8 channel (Table 3), optical membrane potential / electrophysiology assays).
Type: cell-based
Method: Compounds of the invention are useful as antagonists of voltage-gated sodium ion channels. Antagonist properties of test compounds were assessed as follows. Cells expressing the NaV of interest were placed into microtiter plates. After an incubation period, the cells were stained with fluorescent dyes sensitive to the transmembrane potential. The test compounds were added to the microtiter plate. The cells were stimulated with either a chemical or electrical means ti evoke a NaV dependent membrane potential change from unblocked channels, which was detected and measured with trans-membrane potential-sensitive dyes. Antagonists were detected as a decreased membrane potential response to the stimulus. The optical membrane potential assay utilized voltage-sensitive FRET sensors described by Gonzalez and Tsien (See, Gonzalez, J. E. and R. Y. Tsien (1995) “Voltage sensing by fluorescence resonance energy transfer in single cells” Biophys J 69(4): 1272-80, and Gonzalez, J. E. and R. Y. Tsien (1997) “Improved indicators of cell membrane potential that use fluorescence resonance energy transfer” Chem Biol 4(4): 269-77) in combination with instrumentation for measuring fluorescence changes such as the Voltage/Ion Probe Reader (VIPR®) (See, Gonzalez, J. E., K. Oades, et al. (1999) “Cell-based assays and instrumentation for screening ion-channel targets” Drug Discov Today 4(9): 431-439).
The following is an example of how NaV1.3 inhibition activity is measured using the optical membrane potential method #2. Other subtypes are performed in an analogous mode in a cell line expressing the NaV of interest.
HEK293 cells stably expressing NaV1.3 are plated into 96-well microtiter plates. After an appropriate incubation period, the cells are stained with the voltage sensitive dyes CC2-DMPE/DiSBAC2(3) as follows.
2X CC2-DMPE=20 μM CC2-DMPE: 10 mM CC2-DMPE is vortexed with an equivalent volume of 10% pluronic, followed by vortexing in required amount of HBSS containing 10 mM HEPES. Each cell plate will require 5 mL of 2X CC2-DMPE. 50 μL of 2X CC2-DMPE is to wells containing washed cells, resulting in a 10 μM final staining concentration. The cells are stained for 30 minutes in the dark at RT.
2X DISBAC2(3) with ABSC1=6 μM DISBAC2(3) and 1 mM ABSC1: The required amount of 10 mM DISBAC2(3) is added to a 50 ml conical tube and mixed with 1 μL 10% pluronic for each mL of solution to be made and vortexed together. Then HBSS/HEPES is added to make up 2X solution. Finally, the ABSC1 is added.
The 2X DiSBAC2(3) solution can be used to solvate compound plates. Note that compound plates are made at 2X drug concentration. Wash stained plate again, leaving residual volume of 50 μL. Add 50 uL/well of the 2X DiSBAC2(3) w/ABSC1. Stain for 30 minutes in the dark at RT.
The electrical stimulation instrument and methods of use are described in ION Channel Assay Methods PCT/US01/21652, herein incorporated by reference. The instrument comprises a microtiter plate handler, an optical system for exciting the coumarin dye while simultaneously recording the coumarin and oxonol emissions, a waveform generator, a current- or voltage-controlled amplifier, and a device for inserting electrodes in well. Under integrated computer control, this instrument passes user-programmed electrical stimulus protocols to cells within the wells of the microtiter plate.
Assay Protocol • 1. Insert or use electrodes into each well to be assayed. • 2. Use the current-controlled amplifier to deliver stimulation wave pulses for 3 s. Two seconds of pre-stimulus recording are performed to obtain the un-stimulated intensities. Five seconds of post-stimulation recording are performed to examine the relaxation to the resting state.
Data are analyzed and reported as normalized ratios of background-subtracted emission intensities measured in the 460 nm and 580 nm channels. Background intensities are then subtracted from each assay channel. […]

SMILES | IC50
Cc1ccc(C(=O)Nc2cccc(S(N)(=O)=O)c2)cc1 [Compound 38] | > 10 µM
NS(=O)(=O)c1cccc(NC(=O)c2cccc(Br)c2)c1 [Compound 40] | > 10 µM
Cc1ccc(S(N)(=O)=O)cc1NC(=O)c1ccc(Cl)cc1[N+](=O)[O-] [Compound 41] | > 10 µM
COc1ccc(C(=O)Nc2cccc(S(N)(=O)=O)c2)cc1C(F)(F)F [Compound 42] | > 10 µM
COc1cc(C)c(S(N)(=O)=O)cc1NC(=O)c1ccc(C(C)(C)C)cc1 [Compound 43] | > 10 µM
Cc1c(Cl)cc(S(N)(=O)=O)cc1NC(=O)c1ccc(C(C)(C)C)cc1 [Compound 46] | > 10 µM
CC(C)(C)c1ccc(C(=O)Nc2cccc(S(N)(=O)=O)c2)c(Oc2ccccc2Cl)c1 [Compound 48] | < 2 µM
NS(=O)(=O)c1cccc(NC(=O)c2ccc(-c3ncns3)cc2)c1 [Compound 49] | > 10 µM
N#Cc1ccc(C(=O)Nc2cccc(S(N)(=O)=O)c2)cc1 [Compound 52] | > 10 µM
CC(=O)Nc1ccc(C(=O)Nc2cccc(S(N)(=O)=O)c2)cc1 [Compound 54] | > 10 µM
Cc1ccccc1Oc1cc(C(C)(C)C)ccc1C(=O)Nc1cccc(S(N)(=O)=O)c1 [Compound 55] | < 2 µM
CS(=O)(=O)c1ccc(C(=O)Nc2cccc(S(N)(=O)=O)c2)cc1 [Compound 56] | > 10 µM
CCCCOc1ccc(C(=O)Nc2cccc(S(N)(=O)=O)c2)cc1 [Compound 57] | > 10 µM
NS(=O)(=O)c1cccc(NC(=O)c2ccc(-c3ccccc3)cc2)c1 [Compound 58] | > 10 µM
NS(=O)(=O)c1cccc(NC(=O)c2ccc(SC(F)(F)F)cc2)c1 [Compound 60] | > 10 µM
CC(C)(C)c1ccc(C(=O)Nc2cccc(S(N)(=O)=O)c2)c(Oc2cccnc2)c1 [Compound 61] | < 2 µM
CCOc1ccc(C(=O)Nc2cccc(S(N)(=O)=O)c2)cc1 [Compound 64] | > 10 µM
CCc1cc(C(=O)Nc2cccc(S(N)(=O)=O)c2)ccc1-c1ccccc1 [Compound 65] | > 10 µM
CCCc1ccc(C(=O)Nc2cccc(S(N)(=O)=O)c2)cc1 [Compound 66] | > 10 µM

SMILES | IC50
CC(C)(C)c1ccc(C(=O)Nc2cccc(S(N)(=O)=O)c2)cc1 [Compound 67] | < 2 µM
NS(=O)(=O)c1cccc(NC(=O)c2ccccc2NCc2ccccc2)c1 [Compound 68] | > 10 µM
NS(=O)(=O)c1cccc(NC(=O)c2ccc(Cl)cc2Br)c1 [Compound 70] | > 10 µM
NS(=O)(=O)c1cccc(NC(=O)c2ccccc2CCc2ccccc2)c1 [Compound 71] | 2 to 10 µM
CN(C)S(=O)(=O)c1cccc(NC(=O)c2ccc(C(C)(C)C)cc2)c1 [Compound 72] | > 10 µM
NS(=O)(=O)c1cccc(NC(=O)c2cccc(-n3cccn3)c2)c1 [Compound 73] | > 10 µM
NS(=O)(=O)c1cccc(NC(=O)c2cccc(OC(F)(F)F)c2)c1 [Compound 74] | > 10 µM
CC(C)(C)c1ccc(C(=O)Nc2cccc(S(N)(=O)=O)c2)c(Oc2ccc(F)cc2)c1 [Compound 78, 2-(4-Fluorophenoxy)-4-tert-butyl-N-(3-(aminosulfonyl)phenyl)benzamide] | < 2 µM
CC(C)(C)c1ccc(C(=O)Nc2ccc(Cl)c(S(N)(=O)=O)c2)cc1 [Compound 79] | < 2 µM
NS(=O)(=O)c1cccc(NC(=O)c2ccc(C(F)(F)F)cc2C(F)(F)F)c1 [Compound 81] | > 10 µM
NS(=O)(=O)c1cccc(NC(=O)c2ccccc2Nc2cccc(-c3nnn[nH]3)c2)c1 [Compound 82] | > 10 µM
CC(C)(C)c1ccc(C(=O)Nc2cc(S(N)(=O)=O)ccc2Cl)cc1 [Compound 87] | > 10 µM
COc1ccc(Oc2cc(C(C)(C)C)ccc2C(=O)Nc2cccc(S(N)(=O)=O)c2)cc1 [Compound 88] | < 2 µM
CN(C(=O)c1ccc(C(C)(C)C)cc1)c1cccc(S(N)(=O)=O)c1 [Compound 90, 4-tert-Butyl-N-methyl-N-(3-(aminosulfonyl)phenyl)benzamide] | > 10 µM
CC(C)(C)c1ccc(C(=O)Nc2cccc(S(N)(=O)=O)c2)c(Br)c1 [Compound 93] | < 2 µM
CCCCc1ccc(C(=O)Nc2cccc(S(N)(=O)=O)c2)cc1 [Compound 96] | > 10 µM
Cc1ccc(Oc2cc(C(C)(C)C)ccc2C(=O)Nc2cccc(S(N)(=O)=O)c2)c(C)n1 [Compound 99] | < 2 µM
NS(=O)(=O)c1cccc(NC(=O)c2ccc(C(F)(F)F)cc2O)c1 [Compound 100] | > 10 µM

Continued, values first:

IC50 | SMILES
> 10 µM | CC(=O)c1cccc(Nc2ccccc2C(=O)Nc2cccc(S(N)(=O)=O)c2)c1 [Compound 36]
> 10 µM | COC(=O)c1ccc(C(=O)Nc2cccc(S(N)(=O)=O)c2)cc1 [Compound 37]
> 10 µM | CN(C)c1ccccc1C(=O)Nc1cccc(S(N)(=O)=O)c1 [Compound 44]
> 10 µM | CC(C)COC(=O)N1CCN(c2ccccc2C(=O)Nc2cccc(S(N)(=O)=O)c2)CC1 [Compound 45]
> 10 µM | NS(=O)(=O)c1cccc(NC(=O)c2ccccc2C(F)(F)F)c1 [Compound 47]
2 to 10 µM | COc1ccc(Oc2ccccc2C(=O)Nc2cccc(S(N)(=O)=O)c2)cc1 [Compound 50]
> 10 µM | NS(=O)(=O)c1cccc(NC(=O)c2ccccc2OCc2ccccc2)c1 [Compound 51]
< 2 µM | NS(=O)(=O)c1cccc(NC(=O)c2ccccc2Oc2ccccc2N2CCCCC2)c1 [Compound 53, 2-(2-(Piperidin-1-yl)phenoxy)-N-(3-(aminosulfonyl)phenyl)benzamide]
2 to 10 µM | Cc1ccc(Oc2ccccc2C(=O)Nc2cccc(S(N)(=O)=O)c2)cc1 [Compound 59]
> 10 µM | NS(=O)(=O)c1cccc(NC(=O)c2ccc3ccccc3c2)c1 [Compound 62]
2 to 10 µM | NS(=O)(=O)c1cccc(NC(=O)c2ccccc2Oc2ccccc2)c1 [Compound 63]
> 10 µM | Cc1ccccc1C(=O)Nc1cccc(S(N)(=O)=O)c1 [Compound 69]
2 to 10 µM | Cc1ccc(-c2ccccc2C(=O)Nc2cccc(S(N)(=O)=O)c2)cc1 [Compound 75]
> 10 µM | CC(C)COC(=O)NC1CCN(c2ccccc2C(=O)Nc2cccc(S(N)(=O)=O)c2)CC1 [Compound 76]
> 10 µM | COc1cc(C)ccc1C(=O)Nc1cccc(S(N)(=O)=O)c1 [Compound 77]
< 2 µM | CC(C)Cc1ccc(C(=O)Nc2cccc(S(N)(=O)=O)c2)cc1 [Compound 80]
< 2 µM | NS(=O)(=O)c1cccc(NC(=O)c2ccccc2C2CCCCC2)c1 [Compound 83, 2-Cyclohexyl-N-(3-(aminosulfonyl)phenyl)benzamide]
2 to 10 µM | COc1cccc(Oc2ccccc2C(=O)Nc2cccc(S(N)(=O)=O)c2)c1 [Compound 84]
> 10 µM | COc1ccccc1C(=O)Nc1cccc(S(N)(=O)=O)c1 [Compound 85]
> 10 µM | NS(=O)(=O)c1cccc(NC(=O)c2cccc(N3CCNC3=O)c2)c1 [Compound 86]
> 10 µM | NS(=O)(=O)c1cccc(NC(=O)c2ccccc2Oc2cccc(N3CCOCC3)c2)c1 [Compound 89]
< 2 µM | Cc1ccccc1Oc1ccccc1C(=O)Nc1cccc(S(N)(=O)=O)c1 [Compound 91]
> 10 µM | NS(=O)(=O)c1cccc(NC(=O)c2ccccc2N2CCOCC2)c1 [Compound 92]
> 10 µM | NS(=O)(=O)c1cccc(NC(=O)c2ccccc2-c2ccccc2)c1 [Compound 94]
< 2 µM | NS(=O)(=O)c1cccc(NC(=O)c2ccccc2Oc2ccc(F)cc2)c1 [Compound 95]
< 2 µM | CC(C)(C)c1ccc(C(=O)Nc2cccc(S(N)(=O)=O)c2)c(Oc2ccccc2N2CCCCC2)c1 [Compound 97]
< 2 µM | CC(C)(C)c1ccc(C(=O)Nc2cccc(S(N)(=O)=O)c2)c(Oc2ccccc2N2CCOCC2)c1 [Compound 98]
